# Read-outs that look alike come from different tables or passages of the source.
# What was measured:
# S. epidermidis mecA = experiment: Broth microdilution MIC, S. epidermidis mecA; assay type: cell-based; details: for MIC: Staphylococcus epidermidis, read-out: In Vitro MIC
# Description: (§1) Antibacterial tests were carried out by the broth microdilution method on a panel of eight Gram-positive bacterial strains, using vancomycin and teicoplanin as reference compounds.
# [1] = tested on: E. faecalis ATCC 51,299 VanB; experiment: Broth microdilution MIC, E. faecalis ATCC 51,299 VanB; assay type: cell-based; details: for MIC: Enterococcus faecalis, ATCC51, read-out: In Vitro MIC
# Description: as §1
# [2] = tested on: S. aureus MRSA ATCC 33591; experiment: Broth microdilution MIC, S. aureus MRSA ATCC 33591; assay type: cell-based; details: for MIC: Staphylococcus aureus, read-out: In Vitro MIC
# Description: as §1
# [3] = tested on: S. epidermidis ATCC 35984; experiment: Broth microdilution MIC, S. epidermidis ATCC 35984; assay type: cell-based; details: for MIC: Staphylococcus epidermidis
# Description: as §1
# [4] = tested on: S. aureus MSSA ATCC 29213; experiment: Broth microdilution MIC, S. aureus MSSA ATCC 29213; assay type: cell-based; details: for MIC: Staphylococcus aureus, read-out: In Vitro MIC
# Description: as §1
# E. faecalis ATCC 29212 = experiment: Broth microdilution MIC, E. faecalis ATCC 29212; assay type: cell-based; details: for MIC: Enterococcus faecalis
# Description: as §1
# MDCK cells = details: read-out: CC50 (50% cytotoxic concentration), mock-infected, MTS cell viability assay, three days
# E. faecalis 15,376 VanA = experiment: Broth microdilution MIC, E. faecalis 15,376 VanA; assay type: cell-based; details: for MIC: Enterococcus faecalis, read-out: In Vitro MIC
# Description: as §1
# B. subtilis ATCC 6633 = experiment: Broth microdilution MIC, B. subtilis ATCC 6633; assay type: cell-based; details: for MIC: Bacillus subtilis
# Description: as §1
# [5] = tested on: vaccinia virus (strain Lederle); experiment: microbe, parasite or virus in culture; assay type: cell-based; details: Orthopoxvirus vaccinia, HEL, read-out: Antiviral EC50 Vaccinia Virus
# [6] = tested on: thymidine kinase deficient HSV-1/TK- mutant; experiment: microbe, parasite or virus in culture; assay type: cell-based, herpes simplex virus type 1; details: Human alphaherpesvirus 1, HEL, read-out: Antiviral EC50 HSV-1/TK-
# [7] = tested on: herpes simplex virus type 1 (HSV-1 strain KOS); experiment: CPE reduction, MTS assay, HSV-1 in HEL cells; assay type: cell-based; details: Human alphaherpesvirus 1, protection against virus-induced CPE, read-out: Antiviral EC50 HSV-1
# in vitro [8] = details: human
# in vitro [9] = details: human; remark: listed apart in the source
# [10] = tested on: herpes simplex virus type 2 (HSV-2, strain G); experiment: CPE reduction, MTS assay, HSV-2 in HEL cells; assay type: cell-based; details: Human alphaherpesvirus 2, protection against virus-induced CPE, read-out: Antiviral EC50 HSV-2
# in vitro [11] = details: African green monkey
# influenza A or B viruses = experiment: Anti-influenza virus activity in MDCK cells, MTS assay, overall for the three influenza A or B viruses; assay type: cell-based, Influenza A and B viruses
# [12] = tested on: Influenza A/H3N2 (A/Victoria/361/11); experiment: Influenza CPE reduction in MDCK cells, MTS assay, A/H3N2; assay type: cell-based; details: Influenza A virus, H3N2; MDCK cells; A/Victoria/361/11; inhibition of virus-induced CPE by MTS assay; read-out: Antiviral EC50 Influenza A/H3N2
# [13] = tested on: Influenza A/H1N1 (A/Ned/378/05); experiment: Influenza CPE reduction in MDCK cells, MTS assay, A/H1N1; assay type: cell-based; details: Influenza A virus, H1N1; MDCK cells; A/Ned/378/05; inhibition of virus-induced CPE by MTS assay; read-out: Antiviral EC50 Influenza A/H1N1
# in vitro [14] = details: dog
# [15] = tested on: Influenza B (B/Ned/537/05); experiment: Influenza CPE reduction in MDCK cells, MTS assay, influenza B; assay type: cell-based; details: Influenza B virus, inhibition of virus-induced CPE by MTS assay, read-out: Antiviral EC50 Influenza B
# [16] = tested on: HEL, human embryonic lung fibroblast cells; details: read-out: CC50 HEL; mock-infected HEL cells, MTS assay
# [17] = tested on: HeLa, human cervix carcinoma cells; details: read-out: CC50 HeLa; mock-infected HeLa cells, MTS assay
# [18] = tested on: Vero, African Green monkey kidney cells; details: read-out: CC50 Vero; mock-infected Vero cells, MTS assay
# A/PR/8/34 virus = assay type: cell-based, Influenza A virus
# [19] = ATCC35984, read-out: In Vitro MIC
# [20] = ATCC29212, read-out: In Vitro MIC
# [21] = ATCC6633, read-out: In Vitro MIC
# [22] = S. aureus MSSA ATCC 29213, broth microdilution
molecule,measurement,setting,value
CCCCCCCCCCOCc1cn(CCOCCOCCOCCOCc2cn(CCNC(=O)[C@H]3NC(=O)[C@H]4NC(=O)[C@H](NC(=O)[C@@H]5NC(=O)[C@H](CC(N)=O)NC(=O)[C@H](N)[C@H](O)c6ccc(c(Cl)c6)Oc6cc5cc(c6O)Oc5ccc(cc5Cl)[C@H]4O)c4ccc(O)c(c4)-c4c(O)cc(O)cc43)nn2)nn1 [Compound 11],MIC,S. epidermidis mecA,256 µg/mL
same,MIC,[1],256 µg/mL
same,MIC,[2],256 µg/mL
same,MIC,[3]; [19],256 µg/mL
same,MIC,[4],256 µg/mL
same,MIC,E. faecalis ATCC 29212; [20],128 µg/mL
same,CC50,MDCK cells,≥ 20 µM
same,MIC,"E. faecalis 15,376 VanA",256 µg/mL
same,MIC,B. subtilis ATCC 6633; [21],32 µg/mL
Nc1nc2c(ncn2COCCO)c(=O)[nH]1 [Aciclovir],EC50,[5],> 250 µM
same,EC50,[6],146 µM
same,EC50,[7],2.4 µM
same,CC50,in vitro [8],> 250 µM
same,CC50,in vitro [9],> 250 µM
same,EC50,[10],0.05 µM
same,CC50,in vitro [11],> 250 µM
CCCCSC1=C(SCCCC)C(=O)N(CCOCCOCCOCCOCc2cn(CCNC(=O)[C@H]3NC(=O)[C@H]4NC(=O)[C@H](NC(=O)[C@@H]5NC(=O)[C@H](CC(N)=O)NC(=O)[C@H](N)[C@H](O)c6ccc(c(Cl)c6)Oc6cc5cc(c6O)Oc5ccc(cc5Cl)[C@H]4O)c4ccc(O)c(c4)-c4c(O)cc(O)cc43)nn2)C1=O [Compound 12],MIC,S. epidermidis mecA,256 µg/mL
same,MIC,[1],256 µg/mL
same,MIC,[2],256 µg/mL
same,MIC,[3]; [19],128 µg/mL
same,MIC,[4],256 µg/mL
same,MIC,E. faecalis ATCC 29212; [20],128 µg/mL
same,CC50,MDCK cells,100 µM
same,MIC,"E. faecalis 15,376 VanA",256 µg/mL
same,MIC,B. subtilis ATCC 6633; [21],256 µg/mL
same,anti-influenza virus activity (in words),influenza A or B viruses,only slightly active
Nc1ccn(C[C@@H](CO)OCP(=O)(O)O)c(=O)n1 [Cidofovir],EC50,[5],37 µM
same,EC50,[6],5.8 µM
same,EC50,[7],2.4 µM
same,CC50,in vitro [8],> 250 µM
same,CC50,in vitro [9],> 250 µM
same,EC50,[10],1 µM
same,CC50,in vitro [11],> 250 µM
"CC(=O)N[C@H]1[C@H]([C@H](O)[C@H](O)CO)OC(C(=O)O)=C[C@@H]1N=C(N)N [Zanamivir, reference compound]",EC50,[12],9 µM
same,EC50,[13],0.4 µM
same,CC50,in vitro [14],> 100 µM
same,EC50,[15],4.5 µM
"CN[C@H](CC(C)C)C(=O)N[C@H]1C(=O)N[C@@H](CC(N)=O)C(=O)N[C@H]2C(=O)N[C@H]3C(=O)N[C@H](C(=O)N[C@H](C(=O)O)c4cc(O)cc(O)c4-c4cc3ccc4O)[C@H](O)c3ccc(c(Cl)c3)Oc3cc2cc(c3O[C@@H]2O[C@H](CO)[C@@H](O)[C@H](O)[C@H]2O[C@H]2C[C@](C)(N)[C@H](O)[C@H](C)O2)Oc2ccc(cc2Cl)[C@H]1O [VAN, vancomycin]",MIC,S. epidermidis mecA,4 µg/mL
same,MIC,[1],128 µg/mL
same,MIC,[2],0.5 µg/mL
same,MIC,[3]; [19],2 µg/mL
same,MIC,[4],0.5 µg/mL
same,MIC,E. faecalis ATCC 29212; [20],1 µg/mL
same,MIC,"E. faecalis 15,376 VanA",256 µg/mL
same,MIC,B. subtilis ATCC 6633; [21],0.5 µg/mL
CCCCSC1=C(SCCCC)C(=O)N(CCOCCOCCOCCOCc2cn(C3C(=O)NC(CC(N)=O)C(=O)NC4C(=O)NC5C(=O)NC(C(=O)NC(C(=O)O)c6cc(O)cc(O)c6-c6cc5ccc6O)C(O)c5ccc(c(Cl)c5)Oc5cc4cc(c5O)Oc4ccc(cc4Cl)C3O)nn2)C1=O (stereo not drawn) [Compound 7],MIC,S. epidermidis mecA,32 µg/mL
same,MIC,[1],256 µg/mL
same,CC50,[16],> 100 µM
same,MIC,[2],256 µg/mL
same,CC50,[17],> 100 µM
same,CC50,[18],> 100 µM
same,MIC,"[3]; ATCC35984, S. epidermidis ATCC 35984, broth microdilution, read-out: In Vitro MIC",32 µg/mL
same,virus-induced cytopathic effect (CPE) upon microscopic inspection,A/PR/8/34 virus,no virus-induced cytopathic effect (CPE) was observed
same,MIC,[4]; [22],256 µg/mL
same,MIC,"E. faecalis ATCC 29212; ATCC29212, E. faecalis ATCC 29212, broth microdilution, read-out: In Vitro MIC",32 µg/mL
same,CC50,MDCK cells,18 µM
same,MIC,"E. faecalis 15,376 VanA",256 µg/mL
same,MIC,"B. subtilis ATCC 6633; ATCC6633, B. subtilis ATCC 6633, broth microdilution, read-out: In Vitro MIC",32 µg/mL
same,anti-influenza virus activity (in words),influenza A or B viruses,robust activity
CCCCCCS(=O)(=O)NC1C(=O)NC(CC(N)=O)C(=O)NC2C(=O)NC3C(=O)NC(C(=O)NC(C(=O)O)c4cc(O)cc(O)c4-c4cc3ccc4O)C(O)c3ccc(c(Cl)c3)Oc3cc2cc(c3O)Oc2ccc(cc2Cl)C1O (stereo not drawn) [Compound 8],MIC,S. epidermidis mecA,64 µg/mL
same,EC50,[12],> 100 µM
same,MIC,[1],128 µg/mL
same,MIC,[2],256 µg/mL
same,EC50,[13],> 100 µM
same,CC50,in vitro [14],100 µM
same,MIC,[3]; [19],32 µg/mL
same,MIC,[4],256 µg/mL
same,MIC,E. faecalis ATCC 29212; [20],32 µg/mL
same,EC50,[15],> 100 µM
same,MIC,"E. faecalis 15,376 VanA",256 µg/mL
same,MIC,B. subtilis ATCC 6633; [21],32 µg/mL
same,anti-influenza virus activity (in words),influenza A or B viruses,inactive
Nc1nc(O)c2ncn(COC(CO)CO)c2n1 [Ganciclovir],EC50,[5],> 100 µM
same,EC50,[7],0.1 µM
same,CC50,in vitro [8],> 100 µM
same,CC50,in vitro [9],> 100 µM
same,EC50,[10],0.03 µM
same,CC50,in vitro [11],> 100 µM
CCCCCCS(=O)(=O)NCCNC(=O)[C@H]1NC(=O)[C@H]2NC(=O)[C@H](NC(=O)[C@@H]3NC(=O)[C@H](CC(N)=O)NC(=O)[C@H](N)[C@H](O)c4ccc(c(Cl)c4)Oc4cc3cc(c4O)Oc3ccc(cc3Cl)[C@H]2O)c2ccc(O)c(c2)-c2c(O)cc(O)cc21 [Compound 13],MIC,S. epidermidis mecA,128 µg/mL
same,EC50,[12],14 µM
same,MIC,[1],128 µg/mL
same,MIC,[2],256 µg/mL
same,EC50,[13],34 µM
same,CC50,in vitro [14],> 100 µM
same,MIC,[3]; [19],128 µg/mL
same,MIC,[4],256 µg/mL
same,MIC,E. faecalis ATCC 29212; [20],64 µg/mL
same,EC50,[15],> 100 µM
same,MIC,"E. faecalis 15,376 VanA",256 µg/mL
same,MIC,B. subtilis ATCC 6633; [21],256 µg/mL
same,anti-influenza virus activity (in words),influenza A or B viruses,only slightly active
teicoplanin [reference compound],In Vitro MIC,"S. epidermidis mecA; S. epidermidis mecA, broth microdilution",16 µg/mL
same,In Vitro MIC,"[1]; E. faecalis ATCC 51,299 VanB, broth microdilution",0.5 µg/mL
same,In Vitro MIC,"[2]; S. aureus MRSA ATCC 33591, broth microdilution",0.5 µg/mL
same,In Vitro MIC,"[3]; S. epidermidis ATCC 35984, broth microdilution",4 µg/mL
same,In Vitro MIC,[4]; [22],0.5 µg/mL
same,In Vitro MIC,"E. faecalis ATCC 29212; E. faecalis ATCC 29212, broth microdilution",1 µg/mL
same,In Vitro MIC,"E. faecalis 15,376 VanA; E. faecalis 15,376 VanA, broth microdilution",256 µg/mL
same,In Vitro MIC,"B. subtilis ATCC 6633; B. subtilis ATCC 6633, broth microdilution",0.5 µg/mL

# Source: PMC7407158, “Reprogramming of the Antibacterial Drug Vancomycin Results in Potent Antiviral Agents Devoid of Antibacterial Activity” (Pharmaceuticals, 2020)
